Broadly, the IC50 is the point on the concentration scale where inhibition reaches its midpoint.

This assay concerns the target mTOR/GbL/Raptor (mTORC1) (Homo sapiens, UniProt P42345). As to the kind of experiment: mTOR/GbL/Raptor (mTORC1) ELISA assay. Type of assay: biochemical. The conditions noted are these: phosphorylation of 4E-BP1; 0.2 nM mTORC1, 10 μM ATP; read-out: IC50 in this assay (mTORC1 ELISA). The method in brief: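 ELISA read-out: phospho-4E-BP1 captured on Ni-chelate plates and detected with anti-phospho antibody plus HRP-anti-IgG luminescence. The kinase step ran 120 min at ambient temperature with 0.2 nM human mTORC1, 10 µM ATP, 50 nM His-4E-BP1, 10 mM MnCl2, pH 7.2 HEPES.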
(An ELISA detects its analyte on a solid surface through an enzyme-linked reagent.)
For the molecule `Cc1nc2ncc(-c3ccc4c(c3)CN(c3ncnc(C)c3CC3CC3)CCO4)cc2[nH]1` [Example 493, 4-[5-(cyclopropylmethyl)-6-methylpyrimidin-4-yl]-7-(2-methyl-1H-imidazo[4,5-b]pyridin-6-yl)-2,3,4,5-tetrahydro-1,4-benzoxazepine], the 50% inhibitory concentration (IC50) is 10 to 50 nM.
For the molecule `COCCOCc1nc2c(c(N3CCOc4ccc(-c5ccc6nc(C)[nH]c6c5)cc4C3)n1)CC(C)(C)CC2` [Example 494, 4-[6,6-dimethyl-2-({[2-(methyloxy)ethyl]oxy}methyl)-5,6,7,8-tetrahydroquinazolin-4-yl]-7-(2-methyl-1H-benzimidazol-6-yl)-2,3,4,5-tetrahydro-1,4-benzoxazepine], the IC50 lay in the range of 10 to 50 nM.
As for `COCCOCc1nc2c(c(N3CCOc4ccc(-c5cnc6nc(C)[nH]c6c5)cc4C3)n1)CC(C)(C)CC2` [Example 495, 4-[6,6-dimethyl-2-({[2-(methyloxy)ethyl]oxy}methyl)-5,6,7,8-tetrahydroquinazolin-4-yl]-7-(2-methyl-1H-imidazo[4,5-b]pyridin-6-yl)-2,3,4,5-tetrahydro-1,4-benzoxazepine], the IC50 was no more than 10 nM.
As for `Cc1nc2cc(-c3ccc4c(c3)CN(c3nc(C(C)N5CCCC5)nc5c3CC(C)(C)CC5)CCO4)cnc2[nH]1` (centres unmarked) [Example 496, 4-[6,6-dimethyl-2-(1-pyrrolidin-1-ylethyl)-5,6,7,8-tetrahydroquinazolin-4-yl]-7-(2-methyl-3H-imidazo[4,5-b]pyridin-6-yl)-2,3,4,5-tetrahydro-1,4-benzoxazepine], the IC50 lay in the range of 250 to 1000 nM.
As for `Cc1nc2cc(-c3ccc4c(c3)CN(c3nc(CCN5CCCC5)nc5c3CC(C)(C)CC5)CCO4)cnc2[nH]1` [Example 497, 4-[6,6-dimethyl-2-(2-pyrrolidin-1-ylethyl)-5,6,7,8-tetrahydroquinazolin-4-yl]-7-(2-methyl-3H-imidazo[4,5-b]pyridin-6-yl)-2,3,4,5-tetrahydro-1,4-benzoxazepine], the IC50 fell in the range of 10 to 50 nM.
In the case of `Cc1nc2ncc(-c3ccc4c(c3)CN(c3nc(CN5CCOCC5)nc5c3CC(C)(C)CC5)CCO4)cc2[nH]1` [Example 498, 4-[6,6-dimethyl-2-(morpholin-4-ylmethyl)-5,6,7,8-tetrahydroquinazolin-4-yl]-7-(2-methyl-1H-imidazo[4,5-b]pyridin-6-yl)-2,3,4,5-tetrahydro-1,4-benzoxazepine], the IC50 is 50 to 250 nM.
Next, `Cc1nc2ncc(-c3ccc4c(c3)CN(c3nc(CN5CCCCC5)nc5c3CC(C)(C)CC5)CCO4)cc2[nH]1` [Example 499, 4-[6,6-dimethyl-2-(piperidin-1-ylmethyl)-5,6,7,8-tetrahydroquinazolin-4-yl]-7-(2-methyl-1H-imidazo[4,5-b]pyridin-6-yl)-2,3,4,5-tetrahydro-1,4-benzoxazepine]: 50 to 250 nM.
Next, `Cc1nc2cc(-c3ccc4c(c3)CN(c3nc(CN5CCCC5)nc5c3CC(C)(C)CC5)CCO4)ccc2[nH]1` [Example 500, 4-[6,6-dimethyl-2-(pyrrolidin-1-ylmethyl)-5,6,7,8-tetrahydroquinazolin-4-yl]-7-(2-methyl-1H-benzimidazol-5-yl)-2,3,4,5-tetrahydro-1,4-benzoxazepine]: no more than 10 nM; `Cc1nc2cc(-c3ccc4c(c3)CN(c3nc(CN5CCCC5)nc5c3CC(C)(C)CC5)CCO4)cnc2[nH]1` [Example 501, 4-[6,6-dimethyl-2-(pyrrolidin-1-ylmethyl)-5,6,7,8-tetrahydroquinazolin-4-yl]-7-(2-methyl-3H-imidazo[4,5-b]pyridin-6-yl)-2,3,4,5-tetrahydro-1,4-benzoxazepine]: no more than 10 nM.
As for `Cc1nc2cc(-c3ccc4c(c3)CN(c3ncnc5c3CC3(CC5)CC3)CCO4)cnc2[nH]1` [Example 502], the half-inhibitory concentration (IC50) was no more than 10 nM.
With `Cc1nc2ncc(-c3ccc4c(c3)CN(c3nc(CN5CCC(F)(F)C5)nc5c3CC(C)(C)CC5)CCO4)cc2[nH]1` [Example 503, 4-{2-[(3,3-difluoropyrrolidin-1-yl)methyl]-6,6-dimethyl-5,6,7,8-tetrahydroquinazolin-4-yl}-7-(2-methyl-1H-imidazo[4,5-b]pyridin-6-yl)-2,3,4,5-tetrahydro-1,4-benzoxazepine] the figure was 10 to 50 nM; with `COc1ccc2c(N3CCOc4ccc(-c5ccc(N)cc5)cc4C3)nc(C)nc2c1` [Example 504, 4-{4-[2-methyl-7-(methyloxy)quinazolin-4-yl]-2,3,4,5-tetrahydro-1,4-benzoxazepin-7-yl}aniline], 250 to 1000 nM; with `Cc1nc2cc(-c3ccc4c(c3)CN(c3nc([C@H]5CCCN5)nc5c3CC(C)(C)CC5)CCO4)ccc2[nH]1` [Example 505, 4-{6,6-dimethyl-2-[(2R)-pyrrolidin-2-yl]-5,6,7,8-tetrahydroquinazolin-4-yl}-7-(2-methyl-1H-benzimidazol-5-yl)-2,3,4,5-tetrahydro-1,4-benzoxazepine], 10 to 50 nM.
On to `Cc1nc2cc(-c3ccc4c(c3)CN(c3nc([C@H]5CCCN5)nc5c3CC(C)(C)CC5)CCO4)cnc2[nH]1` [Example 506, 4-{6,6-dimethyl-2-[(2R)-pyrrolidin-2-yl]-5,6,7,8-tetrahydroquinazolin-4-yl]-7-(2-methyl-3H-imidazo[4,5-b]pyridin-6-yl)-2,3,4,5-tetrahydro-1,4-benzoxazepine], for which the IC50 is no more than 10 nM.
With `Cc1nc2cc(-c3ccc4c(c3)CN(c3nc([C@@H]5CCCN5)nc5c3CC(C)(C)CC5)CCO4)cnc2[nH]1` [Example 507, 4-{6,6-dimethyl-2-[(2S)-pyrrolidin-2-yl]-5,6,7,8-tetrahydroquinazolin-4-yl}-7-(2-methyl-3H-imidazo[4,5-b]pyridin-6-yl)-2,3,4,5-tetrahydro-1,4-benzoxazepine] the figure was no more than 10 nM; with `COCc1nc2c(c(N3CCOc4ccc(-c5cnc6[nH]c(C)nc6c5)cc4C3)n1)CC(C)(C)CC2` [Example 508, 4-{6,6-dimethyl-2-[(methyloxy)methyl]-5,6,7,8-tetrahydroquinazolin-4-yl}-7-(2-methyl-3H-imidazo[4,5-b]pyridin-6-yl)-2,3,4,5-tetrahydro-1,4-benzoxazepine], no more than 10 nM.
Next, `CN(C)Cc1nc2c(c(N3CCOc4ccc(-c5ccc(N)nc5)cc4C3)n1)CC(C)(C)CC2` [Example 509, 5-(4-{2-[(dimethylamino)methyl]-6,6-dimethyl-5,6,7,8-tetrahydroquinazolin-4-yl}-2,3,4,5-tetrahydro-1,4-benzoxazepin-7-yl)pyridin-2-amine]: 50 to 250 nM; `CCS(=O)(=O)c1cc(-c2ccc3c(c2)CN(c2ncnc4c2CC(C)(C)CC4)CCO3)cnc1N` [Example 510, 5-[4-(6,6-dimethyl-5,6,7,8-tetrahydroquinazolin-4-yl)-2,3,4,5-tetrahydro-1,4-benzoxazepin-7-yl]-3-(ethylsulfonyl)pyridin-2-amine]: 10 to 50 nM.
Next, `CC1(C)CCc2ncnc(N3CCOc4ccc(-c5cnc(N)c(S(=O)(=O)N6CC7CNCC7C6)c5)cc4C3)c2C1` (centres unmarked) [Example 511, 5-[4-(6,6-dimethyl-5,6,7,8-tetrahydroquinazolin-4-yl)-2,3,4,5-tetrahydro-1,4-benzoxazepin-7-yl]-3-(hexahydropyrrolo[3,4-c]pyrrol-2(1H)-ylsulfonyl)pyridin-2-amine]: 50 to 250 nM; `CC1(C)CCc2ncnc(N3CCOc4ccc(-c5cnc(N)c(S(C)(=O)=O)c5)cc4C3)c2C1` [Example 512, 5-[4-(6,6-dimethyl-5,6,7,8-tetrahydroquinazolin-4-yl)-2,3,4,5-tetrahydro-1,4-benzoxazepin-7-yl]-3-(methylsulfonyl)pyridin-2-amine]: 10 to 50 nM.
With `CC1(C)CCc2ncnc(N3CCOc4ccc(-c5cnc(N)c(S(=O)(=O)N6CCOCC6)c5)cc4C3)c2C1` [Example 513, 5-[4-(6,6-dimethyl-5,6,7,8-tetrahydroquinazolin-4-yl)-2,3,4,5-tetrahydro-1,4-benzoxazepin-7-yl]-3-(morpholin-4-ylsulfonyl)pyridin-2-amine], the half-maximal inhibitory concentration (IC50) is 50 to 250 nM.
With `CC1(C)CCc2ncnc(N3CCOc4ccc(-c5cnc(N)c(S(=O)(=O)N6CCNCC6)c5)cc4C3)c2C1` [Example 514, 5-[4-(6,6-dimethyl-5,6,7,8-tetrahydroquinazolin-4-yl)-2,3,4,5-tetrahydro-1,4-benzoxazepin-7-yl]-3-(piperazin-1-ylsulfonyl)puridin-2-amine] the figure was no more than 10 nM; with `CC1(C)CCc2ncnc(N3CCOc4ccc(-c5cnc(N)c(S(=O)(=O)N6CCCC6)c5)cc4C3)c2C1` [Example 515, 5-[4-(6,6-dimethyl-5,6,7,8-tetrahydroquinazolin-4-yl)-2,3,4,5-tetrahydro-1,4-benzoxazepin-7-yl]-3-(pyrrolidin-1-ylsulfonyl)pyridin-2-amine], 50 to 250 nM.
Take `CN1CCN(S(=O)(=O)c2cc(-c3ccc4c(c3)CN(c3ncnc5c3CC(C)(C)CC5)CCO4)cnc2N)CC1` [Example 516, 5-[4-(6,6-dimethyl-5,6,7,8-tetrahydroquinazolin-4-yl)-2,3,4,5-tetrahydro-1,4-benzoxazepin-7-yl]-3-[(4-methylpiperazin-1-yl)sulfonyl]pyridin-2-amine]: the half-inhibitory concentration (IC50) is 50 to 250 nM.
With `CC1(C)CCc2ncnc(N3CCOc4ccc(-c5cnc(N)c(CS(C)(=O)=O)c5)cc4C3)c2C1` [Example 517, 5-[4-(6,6-dimethyl-5,6,7,8-tetrahydroquinazolin-4-yl)-2,3,4,5-tetrahydro-1,4-benzoxazepin-7-yl]-3-[(methylsulfonyl)methyl] pyridin-2-amine] the figure was 10 to 50 nM; with `CN1C[C@@H]2C[C@H]1CN2S(=O)(=O)c1cc(-c2ccc3c(c2)CN(c2ncnc4c2CC(C)(C)CC4)CCO3)cnc1N` [Example 518, 5-[4-(6,6-dimethyl-5,6,7,8-tetrahydroquinazolin-4-yl)-2,3,4,5-tetrahydro-1,4-benzoxazepin-7-yl]-3-{[(1S,4S)-5-methyl-2,5-diazabicyclo[2.2.1]hept-2-yl]sulfonyl}pyridin-2-amine], 50 to 250 nM.

For the origin of these results see patent publication US8648066B2 (Exelixis, Inc., priority 2009, dated 2014).
